In ChEMBL document CHEMBL5500403, “Discovery of a Double-Stapled Short Peptide as a Long-Acting HIV-1 Inactivator with Potential for Oral Bioavailability” (J Med Chem, 2024):
Bridge positions count the residues as written; N and C are the ends. Square brackets hold non-standard residues; d marks the D form. Peptide text beside a SMILES is read from it. S5 = C=CCCC[C@](C)(N)C(=O)O

Key:
[1] = Selectivity index, ratio of CC50 for cytotoxicity against human MT2 cells to IC50 for antiviral activity against HIV-1 IIIB infected in human MT2 cells; type: toxicity, cell-based; conditions: read-out: Ratio CC50/IC50
[2] = Cytotoxicity against human MT2 cells; type: toxicity, cell-based
[3] = tested on: Human immunodeficiency virus 1; test: Antiviral activity against HIV-1 IIIB infected in human MT2 cells assessed as inhibition of viral growth pretreated with virus for 30 mins followed by infection with cells incubated for 72 hrs by ELISA; type: functional, organism-based; conditions: Human immunodeficiency virus 1, IIIB
[4] = tested on: Human immunodeficiency virus 1; test: Antiviral activity against HIV-1 Bal-R5 assessed as reduction in viral growth by measuring p24 antigen level incubated for 2 hrs by ELISA; type: functional, organism-based; conditions: Human immunodeficiency virus 1, Bal-R5, 2 h
[5] = Plasma protein binding in human by LC-MS/MS analysis; type: ADME, cell-free; conditions: read-out: PPB (converted)
[6] = tested on: Human immunodeficiency virus 1; test: Antiviral activity against HIV-1 clinical isolate X4-89BZ167 assessed as reduction in viral growth by measuring p24 antigen level incubated for 2 hrs by ELISA; type: functional, organism-based; conditions: Human immunodeficiency virus 1, clinical isolate X4-89BZ167, 2 h
[7] = tested on: Human immunodeficiency virus 1; test: Antiviral activity against HIV-1 IIIB assessed as reduction in viral growth by measuring p24 antigen level incubated for 2 hrs by ELISA; type: functional, organism-based; conditions: Human immunodeficiency virus 1, IIIB
[8] = Plasma protein binding in rat by LC-MS/MS analysis; type: ADME, cell-free; conditions: read-out: PPB (converted)
[9] = tested on: Human immunodeficiency virus 1; test: Antiviral activity against T20-resistant HIV-1 NL4-3 harboring […] V38E and N42S mutant assessed as reduction in viral growth by measuring p24 antigen level incubated for 2 hrs by ELISA; type: functional, organism-based
[10] = molecular target: chymotrypsin (Homo sapiens, UniProt P17538+P40313+Q6GPI1+Q99895); test: Proteolytic stability assessed as Chymotrypsin (unknown origin) mediated compound degradation by measuring parent compound remaining incubated for 2 hrs by LC-MS/MS analysis; type: ADME, protein assay; conditions: read-out: Stability
[11] = Proteolytic stability assessed as proteinase K (unknown origin) mediated compound degradation incubated for 4 hrs by LC-MS/MS analysis; type: ADME; conditions: human
[12] = tested on: Human immunodeficiency virus 1; test: Antiviral activity against T20-resistant HIV-1 NL4-3 harboring […] V38E and N42S mutant infected in human MT2 cells assessed as inhibition of viral growth pretreated with virus for 30 mins followed by infection with cells incubated for 72 hrs by ELISA; type: functional, organism-based
[13] = tested on: Human immunodeficiency virus 1; test: Antiviral activity against T20-resistant HIV-1 NL4-3 harboring […] N38A and N42T mutant infected in human MT2 cells assessed as inhibition of viral growth pretreated with virus for 30 mins followed by infection with cells incubated for 72 hrs by ELISA; type: functional, organism-based
[14] = Biodistribution in Sprague-Dawley rat brain at 1 mg/kg,iv administration measured after 144 hrs by LC-MS/MS analysis; type: ADME, organism-based; conditions: in vivo
[15] = Elimination half life in Sprague-Dawley rat at 1 mg/kg,iv administration measured upto 9 days by LC-MS/MS analysis; type: ADME, organism-based; conditions: in vivo, time < 9 day, read-out: beta t1/2 (converted)
[16] = AUClast in Sprague-Dawley rat at 1 mg/kg,iv administration measured upto 9 days by LC-MS/MS analysis; type: ADME, organism-based; conditions: in vivo, time < 9 day
[17] = tested on: Human immunodeficiency virus 1; test: Antiviral activity against T20-resistant HIV-1 NL4-3 harboring […] N38A and N42T mutant assessed as reduction in viral growth by measuring p24 antigen level incubated for 2 hrs by ELISA; type: functional, organism-based
[18] = Volume of distribution at steady state in Sprague-Dawley rat at 1 mg/kg,iv administration measured upto 9 days by LC-MS/MS analysis; type: ADME, organism-based; conditions: in vivo, time < 9 day, read-out: Vdss
[19] = MRT in Sprague-Dawley rat at 1 mg/kg,iv administration measured upto 9 days by LC-MS/MS analysis; type: ADME, organism-based; conditions: in vivo, time < 9 day
[20] = tested on: Human immunodeficiency virus 1; test: Antiviral activity against T20-resistant HIV-1 NL4-3 harboring […] N42T and N43K mutant assessed as reduction in viral growth by measuring p24 antigen level incubated for 2 hrs by ELISA; type: functional, organism-based
[21] = Biodistribution in Sprague-Dawley rat brain at 1 mg/kg,iv administration measured after 5 mins by LC-MS/MS analysis; type: ADME, organism-based; conditions: in vivo
[22] = Proteolytic stability assessed as Pepsin (unknown origin) mediated compound degradation incubated for 4 hrs by LC-MS/MS analysis; type: ADME; conditions: human
[23] = tested on: Human immunodeficiency virus 1; test: Antiviral activity against T20-resistant HIV-1 NL4-3 harboring […] N42T and N43K mutant infected in human MT2 cells assessed as inhibition of viral growth pretreated with virus for 30 mins followed by infection with cells incubated for 72 hrs by ELISA; type: functional, organism-based
[24] = Total clearance in Sprague-Dawley rat at 1 mg/kg,iv administration measured upto 9 days by LC-MS/MS analysis; type: ADME, organism-based; conditions: in vivo, time < 9 day
[25] = Stability in rat liver assessed as parent compound remaining at 1 ug/ml incubated for 1 hr by LC-MS/MS analysis; type: ADME, tissue-based; conditions: at 1 µg/mL, read-out: Stability
[26] = Drug concentration in Sprague-Dawley rat plasma at 50 mg/kg,po administrated for 5 days by LC-MS/MS analysis; type: ADME, organism-based; conditions: in vivo, 120 h, time 5 day
[27] = Drug degradation in rat plasma at 1 ug/ml incubated for 1 hr by LC-MS/MS analysis; type: ADME, cell-free; conditions: at 1 µg/mL

CC(=O)N[C@@]1(C)CCC/C=C\CCC[C@@](C)(C(=O)N[C@@H](CCCCN)C(=O)N[C@@H](Cc2ccc(O)cc2)C(=O)N[C@@]2(C)CCC/C=C\CCC[C@@](C)(C(=O)N[C@@H](CCC(N)=O)C(=O)N[C@@H](Cc3ccc(O)cc3)C(=O)N[C@@H](Cc3c[nH]c4ccccc34)C(N)=O)NC(=O)[C@H](CC(C)C)NC(=O)[C@H](CC(N)=O)NC(=O)[C@H](Cc3c[nH]c4ccccc34)NC2=O)NC(=O)[C@H](C)NC(=O)[C@H](CCC(=O)O)NC(=O)[C@H](Cc2c[nH]c3ccccc23)NC1=O (Ac-[S5]WEA[S5]KY[S5]WNL[S5]QYW-NH2; staple (Z) 1-5, 8-12)
selectivity ratio [1]: 32.6
CC50 [2]: 4030 nM
IC50 [3]: 124 nM

CC(=O)NCC(=O)N[C@@]1(C)CCC/C=C\CCC[C@@](C)(C(=O)N[C@@H](Cc2ccc(O)cc2)C(=O)N[C@@H](CC(C)C)C(=O)N[C@@H](Cc2c[nH]c3ccccc23)C(=O)N[C@@H](CC(N)=O)C(=O)N[C@@H](CC(C)C)C(=O)N[C@@H](CC(C)C)C(=O)N[C@@H](CCC(N)=O)C(=O)N[C@@H](Cc2ccc(O)cc2)C(=O)N[C@@H](Cc2c[nH]c3ccccc23)C(N)=O)NC(=O)[C@H](CC(C)C)NC(=O)[C@H](C)NC(=O)[C@H](CCC(=O)O)NC1=O (Ac-G[S5]EAL[S5]YLWNLLQYW-NH2; staple (Z) 2-6)
selectivity ratio [1]: 59.3
CC50 [2]: 7180 nM
IC50 [3]: 121 nM

CC(=O)NCC(=O)N[C@@H](Cc1c[nH]c2ccccc12)C(=O)N[C@@H](CCC(=O)O)C(=O)N[C@@H](C)C(=O)N[C@@H](CC(C)C)C(=O)N[C@@H](CCCCN)C(=O)N[C@@H](Cc1ccc(O)cc1)C(=O)N[C@@H](CC(C)C)C(=O)N[C@@]1(C)CCC/C=C\CCC[C@@](C)(C(=O)N[C@@H](Cc2ccc(O)cc2)C(=O)N[C@@H](Cc2c[nH]c3ccccc23)C(N)=O)NC(=O)[C@H](CC(C)C)NC(=O)[C@H](CC(C)C)NC(=O)[C@H](CC(N)=O)NC1=O (Ac-GWEALKYL[S5]NLL[S5]YW-NH2; staple (Z) 9-13)
selectivity ratio [1]: 36.9
CC50 [2]: 5870 nM
IC50 [3]: 160 nM

CC(=O)NCC(=O)N[C@@H](Cc1c[nH]c2ccccc12)C(=O)N[C@@H](CCC(=O)O)C(=O)N[C@@]1(C)CCC/C=C\CCC[C@@](C)(C(=O)N[C@@H](Cc2c[nH]c3ccccc23)C(=O)N[C@@H](CC(N)=O)C(=O)N[C@@H](CC(C)C)C(=O)N[C@@H](CC(C)C)C(=O)N[C@@H](CCC(N)=O)C(=O)N[C@@H](Cc2ccc(O)cc2)C(=O)N[C@@H](Cc2c[nH]c3ccccc23)C(N)=O)NC(=O)[C@H](Cc2ccc(O)cc2)NC(=O)[C@H](CCCCN)NC(=O)[C@H](CC(C)C)NC1=O (Ac-GWE[S5]LKY[S5]WNLLQYW-NH2; staple (Z) 4-8)
selectivity ratio [1]: 52.5
CC50 [2]: 2310 nM
IC50 [3]: 44.2 nM

enfuvirtide
EC50 [4]: > 4000 nM
fraction unbound [5]: 0.187
EC50 [6]: > 4000 nM
EC50 [7]: > 4000 nM
fraction unbound [8]: 0.041
IC50 [3]: 48.6 nM

CC(=O)NCC(=O)N[C@@H](Cc1c[nH]c2ccccc12)C(=O)N[C@@H](CCC(=O)O)C(=O)N[C@@H](C)C(=O)N[C@@]1(C)CCC/C=C\CCC[C@@](C)(C(=O)N[C@@H](CC(N)=O)C(=O)N[C@@H](CC(C)C)C(=O)N[C@@H](CC(C)C)C(=O)N[C@@H](CCC(N)=O)C(=O)N[C@@H](Cc2ccc(O)cc2)C(=O)N[C@@H](Cc2c[nH]c3ccccc23)C(N)=O)NC(=O)[C@H](CC(C)C)NC(=O)[C@H](Cc2ccc(O)cc2)NC(=O)[C@H](CCCCN)NC1=O (Ac-GWEA[S5]KYL[S5]NLLQYW-NH2; staple (Z) 5-9)
IC50 [3]: > 2000 nM

H-GWEALKYLWNLLQYW-OH
EC50 [9]: 371 nM
remaining at 2 h [10]: 32.9%
Stability [11]: Unstable
IC50 [12]: 21.3 nM
IC50 [13]: 20.1 nM
EC50 [4]: 25300 nM
Drug uptake [14]: Not Active
half-life [15]: 3.8 h
AUC(0-t) at 216 h [16]: 114 µg·h/mL
selectivity ratio [1]: 60.9
EC50 [17]: 30.5 nM
Vd [18]: 0.0527 L/kg
MRT [19]: 5.4 h
EC50 [20]: 41.9 nM
CC50 [2]: 7900 nM
EC50 [6]: 98 nM
Drug uptake [21]: Active
Stability [22]: Unstable
EC50 [7]: 26.1 nM
IC50 [23]: 142 nM
IC50 [3]: 130 nM
clearance [24]: 0.158 mL/min/kg
remaining at 1 h, 1 ug/ml [25]: 80%
Drug uptake [26]: Not Active
Stability [27]: Stable

CC(=O)N[C@@]1(C)CCC/C=C\CCC[C@@](C)(C(=O)N[C@@H](CCCCN)C(=O)N[C@@H](Cc2ccc(O)cc2)C(=O)N[C@@H](CC(C)C)C(=O)N[C@@H](Cc2c[nH]c3ccccc23)C(=O)N[C@@H](CC(N)=O)C(=O)N[C@@H](CC(C)C)C(=O)N[C@@H](CC(C)C)C(=O)N[C@@H](CCC(N)=O)C(=O)N[C@@H](Cc2ccc(O)cc2)C(=O)N[C@@H](Cc2c[nH]c3ccccc23)C(N)=O)NC(=O)[C@H](C)NC(=O)[C@H](CCC(=O)O)NC(=O)[C@H](Cc2c[nH]c3ccccc23)NC1=O (Ac-[S5]WEA[S5]KYLWNLLQYW-NH2; staple (Z) 1-5)
selectivity ratio [1]: 78.5
CC50 [2]: 2670 nM
IC50 [3]: 34.2 nM

CC(=O)NCC(=O)N[C@@H](Cc1c[nH]c2ccccc12)C(=O)N[C@@H](CCC(=O)O)C(=O)N[C@@H](C)C(=O)N[C@@H](CC(C)C)C(=O)N[C@@H](CCCCN)C(=O)N[C@@H](Cc1ccc(O)cc1)C(=O)N[C@@]1(C)CCC/C=C\CCC[C@@](C)(C(=O)N[C@@H](CCC(N)=O)C(=O)N[C@@H](Cc2ccc(O)cc2)C(=O)N[C@@H](Cc2c[nH]c3ccccc23)C(N)=O)NC(=O)[C@H](CC(C)C)NC(=O)[C@H](CC(N)=O)NC(=O)[C@H](Cc2c[nH]c3ccccc23)NC1=O (Ac-GWEALKY[S5]WNL[S5]QYW-NH2; staple (Z) 8-12)
selectivity ratio [1]: 26.1
CC50 [2]: 2490 nM
IC50 [3]: 95.5 nM
